These results are taken from publication PMC7570859, “Simultaneous Quantification and Pharmacokinetic Study of Five Homologs of Dalbavancin in Rat Plasma Using UHPLC-MS/MS” (Molecules, 2020).

Like-named read-outs stand apart in the source and are kept apart here.

The nature of series [1]: Pharmacokinetic study of dalbavancin components in rat plasma after IV dalbavancin hydrochloride (UHPLC-MS/MS). The note with it: SD rats, IV 40 mg/kg dalbavancin hydrochloride, mean ± SD, n = 10; for AUC(0–t): 0 to 216 h; for AUC(0–t) / AUC(0–∞): UHPLC-MS/MS, non-compartmental; for MRT / half-life / Vd: both, Sprague-Dawley, rat, iv, 40 mg/kg; for MRT: MRT(0–t); for Vd: Vz (apparent volume of distribution).
Description: (§1) A total of 20 animal plasma samples were analyzed using the verified UHPLC-MS/MS detection method to evaluate 28-day multiple-dose pharmacokinetics of dalbavancin hydrochloride injected daily in rats.
(§2) Blood samples were collected and centrifuged (5417R centrifuge, Eppendorf AG, Hamburg, Germany) at 835× g for 10 min to separate the upper plasma. Then, 50 μL of plasma was mixed with 200 μL of methanol (containing dalbavancin B0-D8 isotope internal standard solutions at a concentration of 100 ng/mL), after which the solution was swirled with a multi-tube vortex mixer (Allsheng, Hangzhou, China) for 10 min and centrifuged at 12,000× g for 10 min. To obtain a cleaner supernatant, it was further centrifuged at 12,000× g for 5 min before sample injection.
(§3) The UHPLC system consisted of an ACQUITY UPLC I-Class (Waters Corp., Milford, MA, USA) and separation was achieved on an ACQUITY UPLC BEH C18 (2.1 mm × 100 mm, 1.7 μm, Waters Corp.). The mobile phase contained 0.1% formic acid (phase A) and acetonitrile (phase B), while the gradient elution procedure was as follows; 0.00–1.00 min: 20%B→30%B, 1.00–6.00 min: 30%B→33%B, 6.01–7.00 min: 95%B, 7.00–7.01 min: 95%B→20%B, 7.01–8.00 min: 20%B. The flow rate was 0.300 mL/min, and the sample injection volume was 5.0 μL. The autosampler was maintained at 6 °C.
(§4) The mass spectrometry system used was Xevo TQ triple quadrupole MS/MS (Waters Corp.), equipped with ESI source. After injecting 500 ng/mL of dalbavancin component combined solution and dalbavancin isotope internal standard solution into the mass spectrometer, the optimized parameters of the instrument were obtained as follows: capillary voltage, 3.00 kV; ion source temperature, 150 °C; desolvation gas temperature, 350 °C; collision gas flow rate, 0.15 mL/min; desolvation gas flow rate, 650 L/h. SRM was used for monitoring the positive ion mode and the total analysis run time was 8 min. Data was processed using UNIFI v1.9.3 software (Waters Corp.).
(§5) A total of 20 SD rats (weighing approximately 200 g each) were selected and divided into two equal groups, with each group containing 5 male and 5 female rats. Pharmacokinetic experiments were conducted for single-dose and multiple-dose administration of dalbavancin hydrochloride. The route of administration was IV, with an administration volume of 5 mL/kg and a dosage was 40 mg/kg. Blood sampling time points of the single-dose administration group were before administration (0 h) and 5 min, 3 h, 8 h, 24 h, 72 h, 144 h, and 216 h post administration. Blood was collected on day 28 for the multiple-dose administration group, and the time points of blood collection were the same as those of single-dose administration. The blood samples collected were immediately separated using centrifugation at 12,000× g for 10 min, and then, the plasma were transferred and stored at −16 °C to −24 °C until analysis.
(§6) Microsoft Office Excel 2007 and IBM SPSS Statistics 19.0 were used for data processing and statistical calculation using two-tailed Student’s t-test. Data Analysis System 3.1 software (DAS, Shanghai, China) was used to analyze and calculate AUC(0–∞), T1/2, Cmax and other parameters using the non-compartmental model.

The conditions of series [2]: rat, in vivo, iv, 40 mg/kg.
Description: as §1, §2, §3, §4, §5, §6
For series [3] the following is noted: in vivo; cited from earlier work.
[4] abbreviates: D28, multiple-dose group, daily for 28 days.
Where [5] appears, read: T1/2, D28, multiple-dose group, daily for 28 days.

Turning to `CN[C@H]1C(=O)N[C@@H]2Cc3ccc(cc3)Oc3cc4cc(c3O[C@@H]3O[C@H](C(=O)O)[C@@H](O)[C@H](O)[C@H]3NC(=O)CCCCCCCC(C)C)Oc3ccc(cc3Cl)[C@@H](O)[C@@H]3NC(=O)[C@H](NC(=O)[C@@H]4NC(=O)[C@@H](NC2=O)c2cc(cc(O)c2Cl)Oc2cc1ccc2O)c1ccc(O)c(c1)-c1c(O[C@H]2O[C@H](CO)[C@@H](O)[C@H](O)[C@@H]2O)cc(O)cc1[C@@H](C(=O)NCCCN(C)C)NC3=O` [A0], in series [1] (D1, single-dose group), the “AUC(0–t)” value worked out at 10.5 ± 2.6 µg·h/mL, the “AUC(0–∞)” value amounted to 11.8 ± 2.6 µg·h/mL, the Cmax came to 1.8 ± 0.2 µg/mL and the “Vz (apparent volume of distribution)” value stood at 32.9 ± 5.7 L/kg. In series [1] (D1, single-dose group), the MRT came out at 5.6 ± 0.3 h. Further, in series [1] (setting [4]), the MRT worked out at 60.7 ± 2.7 h and the Vd is 196 ± 27.3 L/kg. Besides, the half-life in series [1] (T1/2, D1, single-dose group) is 0.271 ± 0.025 days.
With `CCCCCCCCCCC(=O)N[C@H]1[C@H](Oc2c3cc4cc2Oc2ccc(cc2Cl)[C@@H](O)[C@@H]2NC(=O)[C@H](NC(=O)[C@@H]4NC(=O)[C@H]4NC(=O)[C@@H](Cc5ccc(cc5)O3)NC(=O)[C@H](NC)c3ccc(O)c(c3)Oc3cc(O)c(Cl)c4c3)c3ccc(O)c(c3)-c3c(O[C@H]4O[C@H](CO)[C@@H](O)[C@H](O)[C@@H]4O)cc(O)cc3[C@@H](C(=O)NCCCN(C)C)NC2=O)O[C@H](C(=O)O)[C@@H](O)[C@@H]1O` [A1], in series [1] (D1, single-dose group), the “AUC(0–t)” value worked out at 155.4 ± 79.9 µg·h/mL, the “AUC(0–∞)” value was found to be 173.1 ± 65.6 µg·h/mL, the Cmax is 14.8 ± 6.1 µg/mL and the “Vz (apparent volume of distribution)” value worked out at 9.4 ± 3.3 L/kg. Moreover, in series [1] (D1, single-dose group), the MRT came out at 17 ± 3.8 h. Besides, in series [1] (setting [4]), the MRT came out at 53 ± 5.2 h and the Vd came to 10.1 ± 1.3 L/kg. Also, in series [1] (T1/2, D1, single-dose group), the half-life was 1.15 ± 0.475 days. The compound also gave a half-life in series [1] (setting [5]) of 4.56 ± 0.442 days.
As for `CN[C@H]1C(=O)N[C@@H]2Cc3ccc(cc3)Oc3cc4cc(c3O[C@@H]3O[C@H](C(=O)O)[C@@H](O)[C@H](O)[C@H]3NC(=O)CCCCCCCCC(C)C)Oc3ccc(cc3Cl)[C@@H](O)[C@@H]3NC(=O)[C@H](NC(=O)[C@@H]4NC(=O)[C@@H](NC2=O)c2cc(cc(O)c2Cl)Oc2cc1ccc2O)c1ccc(O)c(c1)-c1c(O[C@H]2O[C@H](CO)[C@@H](O)[C@H](O)[C@@H]2O)cc(O)cc1[C@@H](C(=O)NCCCN(C)C)NC3=O` [B0], in series [2] (both, Sprague-Dawley), the “MRT(0–t)” value was determined as 23.0 ± 0.9 h, the T1/2 came out at 74.6 ± 45.9 h and the “Vz (apparent volume of distribution)” value is 0.7 ± 0.5 L/kg. Further, in series [2], the “AUC(0–t)” value came to 5776.5 ± 2593.2 µg·h/mL, the “AUC(0–∞)” value stood at 6566.7 ± 1820.3 µg·h/mL, the highest concentration (Cmax) turned out to be 437.3 ± 160.3 µg/mL and the “plasma AUC(0–∞) relative to the other components combined” value is “approximately 5.8 times”.
For `CCCCCCCCCCCC(=O)N[C@H]1[C@H](Oc2c3cc4cc2Oc2ccc(cc2Cl)[C@@H](O)[C@@H]2NC(=O)[C@H](NC(=O)[C@@H]4NC(=O)[C@H]4NC(=O)[C@@H](Cc5ccc(cc5)O3)NC(=O)[C@H](NC)c3ccc(O)c(c3)Oc3cc(O)c(Cl)c4c3)c3ccc(O)c(c3)-c3c(O[C@H]4O[C@H](CO)[C@@H](O)[C@H](O)[C@@H]4O)cc(O)cc3[C@@H](C(=O)NCCCN(C)C)NC2=O)O[C@H](C(=O)O)[C@@H](O)[C@@H]1O` [B1], in series [1] (D1, single-dose group), the “AUC(0–t)” value stood at 688.2 ± 272.2 µg·h/mL, the “AUC(0–∞)” value came to 756.2 ± 191.4 µg·h/mL, the Cmax came out at 42.9 ± 18.9 µg/mL and the MRT stood at 32.3 ± 1.5 h. In addition, in series [1] (D1, single-dose group), the Vd turned out to be 2.3 ± 0.4 L/kg. Also, in series [1] (setting [4]), the mean residence time (MRT) was found to be 68.6 ± 8.2 h and the Vd came out at 1.2 ± 0.4 L/kg. The compound further had a half-life in series [1] (T1/2, D1, single-dose group) of 1.21 ± 0.0458 days. The same compound gave a half-life in series [1] (setting [5]) of 3.62 ± 1.15 days.
Take `CC(C)CCCCCCCCC(=O)N[C@H]1[C@H](Oc2c3cc4cc2Oc2ccc(cc2Cl)[C@@H](O)[C@@H]2NC(=O)[C@H](NC(=O)[C@@H]4NC(=O)[C@H]4NC(=O)[C@@H](Cc5ccc(cc5)O3)NC(=O)[C@H](N(C)C)c3ccc(O)c(c3)Oc3cc(O)c(Cl)c4c3)c3ccc(O)c(c3)-c3c(O[C@H]4O[C@H](CO)[C@@H](O)[C@H](O)[C@@H]4O)cc(O)cc3[C@@H](C(=O)NCCCN(C)C)NC2=O)O[C@H](C(=O)O)[C@@H](O)[C@@H]1O` [B2]: in series [1] (D1, single-dose group), the “AUC(0–t)” value amounted to 163.7 ± 79.5 µg·h/mL, the “AUC(0–∞)” value stood at 187.2 ± 61.2 µg·h/mL, the Cmax was found to be 23.4 ± 10.4 µg/mL and the MRT amounted to 16.2 ± 2.4 h. Further, in series [1] (D1, single-dose group), the Vd came to 28 ± 23 L/kg. Also, in series [1] (setting [4]), the MRT was determined as 55.7 ± 4.7 h and the Vd came to 13.5 ± 3.4 L/kg. In series [1] (T1/2, D1, single-dose group), this compound had a half-life of 3.64 ± 2.87 days. In series [1] (setting [5]), this compound showed a half-life of 6.37 ± 1.79 days.
In the case of Dalbavancin, in series [3], the “adverse event: diarrhea” value is on record as 4.4%, the “adverse event: headache” value was 4.7% and the “adverse event: nausea” value is 5.5%.
